Measurements taken from patent US9603865B2, “Methods for the treatment of hepatitis B and hepatitis D virus infections” (priority 2014, dated 2017).
Structures can show the parent of a compound that is named as a salt.

How the values were obtained:
DHBV [1] = test: Serum DHBV DNA by quantitative PCR in DHBV infected Pekin ducks, combination treatment (Example III); type: in vivo
Description: The antiviral effect of combined treatment with the calcium chelate complex of REP 2139 (REP 2139-Ca) and TDF or REP 2139-Ca and TDF and ETV in DHBV infected Pekin ducks was examined by assessing changes in the levels of serum and liver DHBV DNA during and after treatment by quantitative PCR. Infection of ducks was carried out as described in Example II except that treatment was started one month after infection. Treatment regimens were as follows: • 1) Normal saline given by IP injection 3 times per week for 4 weeks • 2) TDF, given 15 mg/day by oral gavage for 28 days • 3) REP 2139-Ca, given 10 mg/kg by IP injection, 3 times per week for 4 weeks. • 4) REP 2139-Ca and TDF (as dosed above) • 5) REP 2139-Ca and TDF (as dosed above) and ETV given 1 mg/day by oral gavage for 28 days.
Serum DHBV DNA was assessed pre-treatment (time point A), at day 14 of treatment (time point B), at the end of treatment (time point C), and one and two months after treatment was stopped (follow-up, time point D and E).

HBV [2] = test: Quantitative serum HBsAg by IMPACT platform in a patient with chronic HBV infection (Example I); type: in vivo, human; details: REP 2055 monotherapy; plateau from 10 weeks until 29 weeks
Text: To confirm the synergistic activity of combination REP 2055/ETV therapy on suppression of HBsAg, serum samples from this patient were re-analyzed using the IMPACT platform to accurately quantitate serum HBsAg levels as described in de Neit et al. (2014, Antiviral Ther., 19: 259-267). […] Importantly, serum HBsAg reduction in this patient reached a plateau where significant serum HBsAg was stably present starting from 10 weeks of REP 2055 treatment until the start of combination REP 2055/ETV therapy at 29 weeks of treatment.

HBV [3] = test: Serum viremia (serum HBV DNA) in a patient with chronic HBV infection (Example I); type: in vivo, human; details: REP 2055 monotherapy, once weekly IV infusion of 400 mg, one patient
Description: (§1) A pharmaceutically acceptable formulation of the NAP REP 2055 (SEQ ID NO: 2) was administered to a patient with chronic HBV infection by once weekly IV infusion of 400 mg. The serum HBsAg response in this patient was monitored real-time each week using a qualified, on-site qualitative ELISA. This ELISA method is very sensitive to low levels of HBsAg but cannot accurately quantify any significant HBsAg concentration in the blood. […] Therefore, after 29 weeks of REP 2055 monotherapy, this patient received HBV polymerase inhibition therapy in addition to the existing REP 2055 therapy which consisted of 0.5 mg of entecavir taken orally every day.

HBV [4] = test: Serum HBsAg by on-site qualitative ELISA in a patient with chronic HBV infection (Example I); type: in vivo, human; details: REP 2055 monotherapy, once weekly IV infusion of 400 mg, 29 weeks, one patient
Description: as §1
This synergistic control of serum HBsAg with combined REP 2055/ETV treatment was maintained over many weeks of treatment.

DHBV [5] = details: previously established DHBV infection in vivo; cited from earlier work

With `CC(C)OC(=O)OCOP(=O)(CO[C@H](C)Cn1cnc2c(N)ncnc21)OCOC(=O)OC(C)C` [TDF, tenofovir disoproxil fumarate] the “serum DHBV DNA during treatment” value (DHBV [1]; 28 days treatment, day 14 (halfway) and end of treatment, REP 2139-Ca 10 mg/kg IP 3 times per week, TDF 15 mg/day, ETV 1 mg/day oral gavage) was “reduced in all ducks but control was not achieved in all ducks until the end of treatment” and the “serum DHBV DNA during follow-up” value (DHBV [1]; one and two months after treatment was stopped) was “rebounded in all ducks”.
In the case of “(dAdC)20 (ACACACACACACACACACACACACACACACACACACACAC; DNA, all phosphorothioate, methylation of C not given here) [REP 2055, Each linkage is phosphorothioated]”, the “initial reduction of serum HBsAg (quantitative, IMPACT platform)” value (HBV [2]) is reported as roughly 2 log, the “drop in serum viremia (serum HBV DNA)” value (HBV [3]) is reported as roughly 1 log and the “serum HBsAg (qualitative ELISA)” value (HBV [4]) is reported as “no detectable reduction”. For the same compound, the cccDNA copy number (DHBV [5]) was “reduction in cccDNA copy number”, the cccDNA transcriptional activity (DHBV [5]) was “transcriptional inactivation of cccDNA” and the “serum duck HBsAg (DHBsAg)” value (DHBV [5]) was “clearance”.
